Patent US20230277534A1 (Plexxikon Inc., priority 2011, published 2023)

Key:
B-Raf V600E = B-Raf V600E (Homo sapiens (Human), UniProt P15056, V600E); experiment: B-Raf V600E kinase biochemical activity assay (AlphaScreen, biotin-MEK1 substrate); conditions: 100 μM ATP
Summary of the method: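 B-Raf V600E (0.1 ng) phosphorylated 100 nM biotin-MEK1 with 100 μM ATP (final) in HEPES pH 7.0 with Mg2+/Mn2+ for 45 min at room temperature. Compounds were tested over an 8-point serial dilution. Phospho-MEK1/2 was detected by AlphaScreen after 3 h with beads, and IC50 came from signal versus concentration.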

[1] = tested on: COLO205 colon adenocarcinoma cells (B-Raf V600E mutation); experiment: COLO205 cell growth inhibition (ATPlite); assay type: cell-based; conditions: Homo sapiens, COLO 205, 72 h, 3 days
Description: Compounds are assessed in a variety of cell based assays.
On day 1, cells are counted, then centrifuged in a conical tube for 5 minutes at 1000 rpm.
On day 2, compound at a maximum concentration of 5 mM is serially diluted 1:3 (e.g. 10 μL with 30 μL dimethyl sulfoxide) for a total of 8 point titration with DMSO as a control. A 1 μL aliquot of each dilution point and control is added to 249 μL growth media and 50 μL is added to a well containing cells, providing 10 μM compound at the maximum concentration point. The cells are incubated for 3 days at 37° C. in 5% CO2.
ATPlite is added 25 μL to each well, shake for 2 minutes, and the cells are incubated at room temperature for 10 minutes, then luminescence is read on Safire reader. The measured luminescence correlates directly with cell number, such that the reading as a function of compound concentration is used to determine the IC50 value.

Sequence of B-Raf V600E (P15056 whole entry V600E): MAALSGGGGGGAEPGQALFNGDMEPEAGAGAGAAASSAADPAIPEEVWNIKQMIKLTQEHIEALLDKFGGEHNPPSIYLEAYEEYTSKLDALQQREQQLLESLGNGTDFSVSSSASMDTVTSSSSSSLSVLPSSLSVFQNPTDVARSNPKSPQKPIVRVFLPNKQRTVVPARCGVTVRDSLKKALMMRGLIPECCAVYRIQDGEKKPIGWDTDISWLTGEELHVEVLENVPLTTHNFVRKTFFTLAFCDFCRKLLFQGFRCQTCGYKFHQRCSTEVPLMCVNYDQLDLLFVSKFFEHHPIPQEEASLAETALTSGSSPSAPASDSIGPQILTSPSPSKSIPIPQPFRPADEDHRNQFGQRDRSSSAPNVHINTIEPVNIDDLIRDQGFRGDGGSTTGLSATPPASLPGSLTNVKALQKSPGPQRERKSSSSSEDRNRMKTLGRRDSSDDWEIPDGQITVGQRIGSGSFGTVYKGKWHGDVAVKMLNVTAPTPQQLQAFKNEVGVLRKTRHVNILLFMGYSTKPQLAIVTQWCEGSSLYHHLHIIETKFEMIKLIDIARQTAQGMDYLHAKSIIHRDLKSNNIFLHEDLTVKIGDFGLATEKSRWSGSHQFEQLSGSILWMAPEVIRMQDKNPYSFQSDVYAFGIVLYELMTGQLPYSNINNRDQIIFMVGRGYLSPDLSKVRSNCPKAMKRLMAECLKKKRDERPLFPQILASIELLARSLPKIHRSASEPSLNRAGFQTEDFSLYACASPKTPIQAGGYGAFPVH

Row | SMILES | IC50 (B-Raf V600E) [µM] | IC50 [1] [µM]
1 | CN(C)S(=O)(=O)Nc1cccc(C(=O)c2c[nH]c3ncc(-c4ccc(C#N)nc4)cc23)c1F [Compound P-0099, 5-(6-cyano-3-pyridyl)-3-[3-(dimethylsulfamoylamino)-2-fluoro-benzoyl]-1H-pyrrolo[2,3-b]pyridine] | < 0.1 | > 1
2 | CCN(C)S(=O)(=O)Nc1cccc(C(=O)c2c[nH]c3ncc(-c4cnc(C#N)nc4)cc23)c1F [Compound P-0100, 5-(2-cyanopyrimidin-5-yl)-3-[3-[[ethyl(methyl)sulfamoyl]amino]-2-fluoro-benzoyl]-1H-pyrrolo[2,3-b]pyridine] | < 0.1 | > 1
3 | CCN(C)S(=O)(=O)Nc1cccc(C(=O)c2c[nH]c3ncc(-c4cncc(C#N)c4)cc23)c1F [Compound P-0101, 5-(5-cyano-3-pyridyl)-3-[3-[[ethyl(methyl)sulfamoyl]amino]-2-fluoro-benzoyl]-1H-pyrrolo[2,3-b]pyridine] | < 0.1 | > 1
4 | CCN(C)S(=O)(=O)Nc1cccc(C(=O)c2c[nH]c3ncc(-c4ccc(C#N)nc4)cc23)c1F [Compound P-0102, 5-(6-cyano-3-pyridyl)-3-[3-[[ethyl(methyl)sulfamoyl]amino]-2-fluoro-benzoyl]-1H-pyrrolo[2,3-b]pyridine] | < 0.1 | > 1
5 | CCN(C)S(=O)(=O)Nc1cccc(C(=O)c2c[nH]c3ncc(-c4ccc(C(C)(C)O)cc4)cc23)c1F [Compound P-0104, 3-[3-[[ethyl(methyl)sulfamoyl]amino]-2-fluoro-benzoyl]-5-[4-(1-hydroxy-1-methyl-ethyl)phenyl]-1H-pyrrolo[2,3-b]pyridine] | < 0.1 | < 1
6 | CN(C)c1ncc(-c2cnc3[nH]cc(C(=O)c4cccc(NS(=O)(=O)N(C)C)c4F)c3c2)cn1 [Compound P-0106, 5-[2-(dimethylamino)pyrimidin-5-yl]-3-[3-(dimethylsulfamoylamino)-2-fluoro-benzoyl]-1H-pyrrolo[2,3-b]pyridine] | < 0.1 | < 1
7 | CN(C)S(=O)(=O)Nc1cccc(C(=O)c2c[nH]c3ncc(-c4cnc(N5CCCC5)nc4)cc23)c1F [Compound P-0107, 3-[3-(dimethylsulfamoylamino)-2-fluoro-benzoyl]-5-(2-pyrrolidin-1-ylpyrimidin-5-yl)-1H-pyrrolo[2,3-b]pyridine] | < 0.1 | < 1
8 | O=C(c1cccc(NS(=O)(=O)N2CCCC2)c1F)c1c[nH]c2ncc(-c3cnc(N4CCCC4)nc3)cc12 [Compound P-0109, N-[2-fluoro-3-[5-(2-pyrrolidin-1-ylpyrimidin-5-yl)-1H-pyrrolo[2,3-b]pyridine-3-carbonyl]phenyl]pyrrolidine-1-sulfonamide] | < 0.1 | < 1
9 | CN(C)S(=O)(=O)Nc1cccc(C(=O)c2c[nH]c3ncc(I)cc23)c1F [Compound P-0110, 3-[3-(dimethylsulfamoylamino)-2-fluoro-benzoyl]-5-iodo-1H-pyrrolo[2,3-b]pyridine] | < 0.1 | < 1
10 | CCCN(C)S(=O)(=O)Nc1cccc(C(=O)c2c[nH]c3ncc(-c4cnc(C)nc4)cc23)c1F [Compound P-0111, 3-[2-fluoro-3-[[methyl(propyl)sulfamoyl]amino]benzoyl]-5-(2-methylpyrimidin-5-yl)-1H-pyrrolo[2,3-b]pyridine] | < 0.1 | < 1
11 | Cc1ncc(-c2cnc3[nH]cc(C(=O)c4cccc(NS(=O)(=O)N(C)CC5CC5)c4F)c3c2)cn1 [Compound P-0112, 3-[3-[[cyclopropylmethyl(methyl)sulfamoyl]amino]-2-fluoro-benzoyl]-5-(2-methylpyrimidin-5-yl)-1H-pyrrolo[2,3-b]pyridine] | < 0.1 | < 1
12 | CN(C)S(=O)(=O)Nc1cccc(C(=O)c2c[nH]c3ncc(-c4ccc(C5CC5)nc4)cc23)c1F [Compound P-0113, 5-(6-cyclopropyl-3-pyridyl)-3-[3-(dimethylsulfamoylamino)-2-fluoro-benzoyl]-1H-pyrrolo[2,3-b]pyridine] | < 0.1 | < 1
13 | CCCN(C)S(=O)(=O)Nc1cccc(C(=O)c2c[nH]c3ncc(-c4ccc(C5CC5)nc4)cc23)c1F [Compound P-0114, 5-(6-cyclopropyl-3-pyridyl)-3-[2-fluoro-3-[[methyl(propyl)sulfamoyl]amino]benzoyl]-1H-pyrrolo[2,3-b]pyridine] | < 0.1 | < 1
14 | CN(CC1CC1)S(=O)(=O)Nc1cccc(C(=O)c2c[nH]c3ncc(-c4ccc(C5CC5)nc4)cc23)c1F [Compound P-0115, 3-[3-[[cyclopropylmethyl(methyl)sulfamoyl]amino]-2-fluoro-benzoyl]-5-(6-cyclopropyl-3-pyridyl)-1H-pyrrolo[2,3-b]pyridine] | < 0.1 | < 1
15 | CCCN(C)S(=O)(=O)Nc1ccc(F)c(C(=O)c2c[nH]c3ncc(-c4cnc(OC)nc4)cc23)c1F [Compound P-0116, 3-[2,6-difluoro-3-[[methyl(propyl)sulfamoyl]amino]benzoyl]-5-(2-methoxypyrimidin-5-yl)-1H-pyrrolo[2,3-b]pyridine] | < 0.1 | < 1
16 | CCCNS(=O)(=O)Nc1cccc(C(=O)c2c[nH]c3ncc(I)cc23)c1F [Compound P-0117, [2-fluoro-3-(propylsulfamoylamino)phenyl]-(5-iodo-1H-pyrrolo[2,3-b]pyridin-3-yl)methanone] | > 0.1 | > 1
17 | CCC(C)S(=O)(=O)Nc1cccc(C(=O)c2c[nH]c3ncc(-c4cnc(OC)nc4)cc23)c1F (stereo not drawn) [Compound P-0224, N-[2-fluoro-3-[5-(2-methoxypyrimidin-5-yl)-1H-pyrrolo[2,3-b]pyridine-3-carbonyl]phenyl]butane-2-sulfonamide] | < 0.1 | < 1
18 | CCC(C)S(=O)(=O)Nc1cccc(C(=O)c2c[nH]c3ncc(-c4cnc(N5CCCC5)nc4)cc23)c1F (stereo not drawn) [Compound P-0225, N-[2-fluoro-3-[5-(2-pyrrolidin-1-ylpyrimidin-5-yl)-1H-pyrrolo[2,3-b]pyridine-3-carbonyl]phenyl]butane-2-sulfonamide] | < 0.1 | < 1
19 | CCC(C)S(=O)(=O)Nc1cccc(C(=O)c2c[nH]c3ncc(-c4cnc(NC5CC5)nc4)cc23)c1F (stereo not drawn) [Compound P-0226, N-[3-[5-[2-(cyclopropylamino)pyrimidin-5-yl]-1H-pyrrolo[2,3-b]pyridine-3-carbonyl]-2-fluoro-phenyl]butane-2-sulfonamide] | < 0.1 | < 1

Next, values leading:

Row | IC50 (B-Raf V600E) [µM] | IC50 [1] [µM] | SMILES
20 | < 0.1 | > 1 | CCN(C)S(=O)(=O)Nc1cccc(C(=O)c2c[nH]c3ncnc(N[C@@H](C)C4CC4)c23)c1F [Compound P-0089, 4-[[(1S)-1-cyclopropylethyl]amino]-5-[3-[[ethyl(methyl)sulfamoyl]amino]-2-fluoro-benzoyl]-7H-pyrrolo[2,3-d]pyrimidine]
21 | < 0.1 | < 1 | N#Cc1ccc(-c2cnc3[nH]cc(C(=O)c4cccc(NS(=O)(=O)N5CCCC5)c4F)c3c2)cc1 [Compound P-0090, N-[3-[5-(4-cyanophenyl)-1H-pyrrolo[2,3-b]pyridine-3-carbonyl]-2-fluoro-phenyl]pyrrolidine-1-sulfonamide]
22 | < 0.1 | < 1 | Cc1ncc(-c2cnc3[nH]cc(C(=O)c4cccc(NS(=O)(=O)N5CCCC5)c4F)c3c2)cn1 [Compound P-0092, N-[2-fluoro-3-[5-(2-methylpyrimidin-5-yl)-1H-pyrrolo[2,3-b]pyridine-3-carbonyl]phenyl]pyrrolidine-1-sulfonamide]
23 | < 0.1 | < 1 | N#Cc1cncc(-c2cnc3[nH]cc(C(=O)c4cccc(NS(=O)(=O)N5CCCC5)c4F)c3c2)c1 [Compound P-0093, N-[3-[5-(5-cyano-3-pyridyl)-1H-pyrrolo[2,3-b]pyridine-3-carbonyl]-2-fluoro-phenyl]pyrrolidine-1-sulfonamide]
24 | < 0.1 | < 1 | N#Cc1ccc(-c2cnc3[nH]cc(C(=O)c4cccc(NS(=O)(=O)N5CCCC5)c4F)c3c2)cn1 [Compound P-0094, N-[3-[5-(6-cyano-3-pyridyl)-1H-pyrrolo[2,3-b]pyridine-3-carbonyl]-2-fluoro-phenyl]pyrrolidine-1-sulfonamide]
25 | < 0.1 | < 1 | O=C(c1cccc(NS(=O)(=O)N2CCCC2)c1F)c1c[nH]c2ncc(-c3ccc(C(F)(F)F)nc3)cc12 [Compound P-0095, N-[2-fluoro-3-[5-[6-(trifluoromethyl)-3-pyridyl]-1H-pyrrolo[2,3-b]pyridine-3-carbonyl]phenyl]pyrrolidine-1-sulfonamide]
26 | < 0.1 | < 1 | Cc1ncc(-c2cnc3[nH]cc(C(=O)c4cccc(NS(=O)(=O)N(C)C)c4F)c3c2)cn1 [Compound P-0097, 3-[3-(dimethylsulfamoylamino)-2-fluoro-benzoyl]-5-(2-methylpyrimidin-5-yl)-1H-pyrrolo[2,3-b]pyridine]
27 | < 0.1 | < 1 | CN(C)S(=O)(=O)Nc1cccc(C(=O)c2c[nH]c3ncc(-c4cncc(C#N)c4)cc23)c1F [Compound P-0098, 5-(5-cyano-3-pyridyl)-3-[3-(dimethylsulfamoylamino)-2-fluoro-benzoyl]-1H-pyrrolo[2,3-b]pyridine]
